Measurements: US20090220490A1, “Compositions and Assays for Inhibiting HCV Infection” (priority 2006, published 2009)
Entries after “also recorded” stand apart in the source; their conditions may differ. Where a SMILES comes first, the peptide text is derived from it. The star is where a group is joined. FITC = O=C1OC2(c3ccc(O)cc3Oc3cc(O)ccc32)c2ccc(NC(=S)*)cc21

Legend:
Type in all cases: cell-based
human hepatocytes = test: cell toxicity by release of lactic dehydrogenase (LDH) into the medium
Protocol: Toxicity of AP-50 peptides to human hepatocyte cultures was determined by measuring lactic dehydrogenase (Sigma) in the medium.

HCV genotype 3 = test: HCV replication (HCV RNA expression) in serum-derived HCV-infected human hepatocyte cultures; conditions: peptide 90 μM (text: picomolar), treated 4 hr after the HCV infection (FIG. 13F)
Text: (§1) Sera from 25 HCV-infected patients and 3 control subjects were obtained at the VA San Diego Healthcare System Clinical Laboratory. The subject population included individuals with chronic HCV infection, viral load>200,000 IU/ml and genotypes 1 (N: 15), 2 (N: 3), 3 (N: 4), or 4 (N: 3), but negative for Hepatitis A and B, CMV and HIV. Control sera were obtained from subjects negative for Hepatitis A, B and C, CMV and HIV. In different experiments, the inoculums fluctuated between 3,728 and 68,000 HCV viral particles.
(§2) The hepatocytes were cultured for serum-derived HCV infection under the following conditions: 1) the matrix was rat-tail collagen (BD); 2) the collagen matrix was prepared within 24 hr of hepatocyte plating, at a concentration of 50 μg/ml or greater; 3) the culture plates were coated with polylysine; 4) the rinsing of the matrix was minimal; 5) the suspended hepatocytes were allowed to attach in 20% fetal calf serum for not more than 18 hr; 6) the hepatocyte-specific media was given for at least 24 hr prior to the HCV infection; 7) the hepatocytes were >85% confluent until the time of infection; 8) hepatocyte cultures with >5% apoptosis by annexin-V assays and/or increases>3-fold in ALT were discarded; and 9) hepatocyte media was added every 48 hr.
(§3) Total RNA was isolated from HCV infected primary human hepatocytes using the Ultraspec TM-II RNA kit from Biotecx Inc. (Texas) following the manufacturers protocol. The cDNA synthesis was performed using Stratascript RT MMuLV RNAse H free and Stratascript RT buffer (Stratagene), per manufacturers protocol, using:
(§4) PCR was performed on the cDNA using the cDNA reaction mixture with Qiagen's HotStar High Fidelity polymerase. Amplicons were run on 2% TBE agarose gels and imaged on a KODAK Imaging station.

HCV genotype 4 = test: as above; conditions: peptide 90 μM (text: picomolar), treated 4 hr after the HCV infection (FIG. 13F)
Text: as §1, §2, §3, §4

HCV genotype 1 = test: as above
Text: as §1, §2, §3, §4

[1] = system: HCV-infected human hepatocytes; test: confocal microscopy of FITC-labelled peptide: cell entry and association with HCV E2
Protocol: (§5) Fluorescent labels were observed using a triple-channel fluorescence microscope or a confocal microscope. Fluorochromes utilized included TOPRO-3 (blue), Alexa 488 (green) and Alexa 594 (red) (Molecular Probes). The percentage of HCV infected hepatocytes was determined by confocal microscopy using HCV E2 and core specific antibodies (Buck, et al., Mol. Cell. 8, 807 (2001); Rudel et al., Science 276, 1571 (1997). AP-50 and AP-50-phosphoT^157 were detected with specific antibodies (Zhang et al., Traffic 6, 1103 (2005); Smythe, Nature 431, 641 (2004)). At least 100 cells were analyzed per experimental point (Buck et al. EMBO J 20, 6712 (2001)). The nuclear morphology were analyzed by staining cells with TOPRO-3 ([…]). Two observers analyzed each immunofluorescent study.
(§6) Primary hepatocytes were fixed with 50/50 acetone/methanol at −20° C. for 20 minutes and allowed to air dry at room temperature. Blocking of non-specific epitopes was done with PBS+3% BSA for 30 minutes at room temperature. Primary antibodies were used at 1:100 dilutions in PBS+3% BSA, for 1 hour at room temperature washes were done with PBS. […] At least 100 cells were analyzed per experimental point. We analyzed the nuclear morphology by staining cells with TO-PRO-3 (Molecular Probes). […]

[2] = system: endogenous AP-50 phosphorylation on Thr156; test: confocal microscopy of AP-50 phosphoT156 in HCV-infected human hepatocyte cultures; conditions: HCV genotype 1-infected human hepatocyte cultures, 72 hr, epitope specific antibodies (FIG. 13D)
Protocol: as §5, §6

SMILES: CC(C)[C@H](NC(=O)[C@H](CCC(N)=O)NC(=O)[C@H](CCCNC(=N)N)NC(=O)[C@H](CCCNC(=N)N)NC(=O)[C@H](CCCNC(=N)N)NC(=O)[C@H](CCC(N)=O)NC(=O)[C@H](CCCNC(=N)N)NC(=O)[C@H](CCCNC(=N)N)NC(=O)[C@H](CCCCN)NC(=O)[C@H](CCCCN)NC(=O)[C@H](CCCNC(=N)N)NC(=O)CNC(=O)[C@H](Cc1ccc(O)cc1)NC(=O)CNC(=O)CNC(=O)CNC(=O)CNC(=S)Nc1ccc2c(c1)C(=O)OC21c2ccc(O)cc2Oc2cc(O)ccc21)C(=O)N[C@@H](C)C(=O)NCC(=O)N[C@@H](CCC(N)=O)C(=O)O [AP-50 peptide] ({FITC}-GGGGYGRKKRRQRRRQVAGQ-OH; N-terminus and C-terminus assumed)
- LDH values / viability of HCV-infected hepatocytes treated with peptide (human hepatocytes; human hepatocytes infected with HCV genotypes 1, 3 or 4, 72 hr, relative to control (FIG. 14)): improving the viability; also recorded: normalized
- cellular toxicity (LDH release into the medium) (human hepatocytes; human hepatocytes treated with peptide for 72 hr (FIG. 14)): not toxic
- HCV replication, detected by expression of HCV RNA at 72 hr (HCV genotype 3): inhibited HCV replication
- HCV replication, detected by expression of HCV RNA at 72 hr (HCV genotype 4): inhibited HCV replication
- HCV replication, detected by expression of HCV RNA (HCV genotype 1; peptide 90 pM, 72 hr, given at time zero of the infection (FIG. 13E)): blocked HCV replication; also recorded: inhibited HCV replication
- HCV replication, detected by expression of HCV RNA at 72 hr (HCV genotype 1; peptide 90 μM (text: picomolar), treated 4 hr after the HCV infection (FIG. 13F)): inhibited HCV replication
- association with HCV E2 in cells (confocal microscopy, merge) ([1]; HCV-infected human hepatocytes, 72 hr (FIG. 13B)): associated with HCV E2
- cell permeability (intracellular FITC fluorescence) ([1]; human hepatocytes, 72 hr, HCV genotype 1 (FIG. 13B)): cell permeable; also recorded: intracellular
- phosphorylation of endogenous AP-50 on Thr156 [2]: inhibited the phosphorylation; also recorded: blocked phosphorylation
